Measured values: article PMC10804683, “Identification of the pyridoxal 5′‐phosphate allosteric site in human pyridox(am)ine 5′‐phosphate oxidase” (Protein Science : A Publication of the Protein Society, 2024)
Positions count from the first letter of the chain named.

Experiments:
human PNPO wild type = target: T1, human PNPO wild type (Homo sapiens, UniProt Q9NVS9)
T1 sequence (Q9NVS9 1-261): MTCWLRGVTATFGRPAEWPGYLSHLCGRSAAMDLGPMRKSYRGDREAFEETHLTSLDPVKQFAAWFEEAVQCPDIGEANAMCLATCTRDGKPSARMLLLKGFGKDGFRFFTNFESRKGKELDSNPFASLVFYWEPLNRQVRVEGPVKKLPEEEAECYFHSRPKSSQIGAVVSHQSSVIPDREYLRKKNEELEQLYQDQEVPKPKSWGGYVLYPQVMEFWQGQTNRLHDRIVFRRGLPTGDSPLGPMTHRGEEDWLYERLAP

human PNPO F48A variant = target: T2, human PNPO F48A variant (Homo sapiens, UniProt Q9NVS9, F48A); experiment: PMP oxidation kinetics, F48A variant; conditions: 50 mM Tris–HCl pH 7.6, 37°C, 2 μM enzyme
T2 sequence (Q9NVS9 1-261 F48A): T1 sequence (Q9NVS9 1-261) with F48A

PMP oxidation kCAT (human PNPO wild type; 50 mM Tris–HCl pH 7.6, 37°C, 2 μM enzyme): 0.135 ± 0.00283 s⁻¹ | KM for PMP relative to KM for PNP (human PNPO wild type; Tris–HCl pH 7.6, 37°C): 25 fold | PMP oxidation kCAT (human PNPO F48A variant): 0.1785 ± 0.003 s⁻¹
SMILES: Cc1ncc(COP(=O)(O)O)c(CN)c1O [PMP, pyridoxamine 5′‐phosphate]
